Measurements published in US3941882A, “Rodenticidal imidazo-pyridines” (priority 1974, dated 1976).
“And” between values parts separate entries of the source, which are not always exact repeats. Equal values may be shown once.

Key:
[1] = system: coagulation (prothrombin time, activated partial thromboplastin, thrombin clotting time, fibrinogen); assay: Coagulation studies in dogs: clotting times and fibrinogen (Table V); assay type: in vivo, dogs (beagles); settings: for Activated Partial Thromboplastin Time / Fibrinogen Levels / Prothrombin Time / Thrombin Clotting Time: 40 mg./kg. oral on each of 3 successive days, fourth day, per dog
Description: (§1) Each of 1-methoxy-6-chloro-2-trifluoromethyl-1H-imidazo-(4,5-b)pyridine and 1-hydroxy-6-chloro-2-trifluoromethyl-1H-imidazo(4,5-b)pyridine was evaluated in coagulation studies in dogs (beagles weighing about 10 kilograms each). Two dogs were employed with each compound, one female and one male.
In the first part of the evaluation, a blood sample was taken from each dog prior to any treatment with the respective compound. The sample was citrated and centrifuged for 10-15 minutes to segregate the plasma, which was separated and quick frozen. The dogs were then treated: each dog received 40 mg./kg. of the respective compound on each of 3 successive days; administration was by the oral route. On the fourth day, blood samples were again taken and processed as described above. Throughout the test, the dogs were provided with adequate food and water and otherwise maintained under good conditions. The samples were subsequently thawed and analyzed for prothrombin time activated partial thromboplastin, thrombin clotting time, and fibrinogen levels. The first three analyses were conducted on a "Bioquest Fibrometer", produced by Baltimore Biological Division of Becton and Dickinson at Cockeysville, Maryland 21030, Fibrinogen levels were determined by the method of H. O. Bang, 9 Scand. J. Clin. Lab. Inves. 205 (1957).

Prothrombin (II) = assay: Coagulation factor concentration in dogs, factor II (Table VI); assay type: in vivo, dogs (beagles); settings: 40 mg./kg. oral x 3 days; per dog
Description: as §1
(§2) In the second part of the evaluation, a sample was taken from each of the same four dogs prior to any treatment (at the same time as the initial sample for the first part of the evaluation), and the samples were pooled and evaluated for the concentration of individual clotting factors, to serve as a control. Following the treatment described above, a sample was again taken from each dog and individually analyzed in the same manner. The control figure was considered as 100 percent and the scores for the treated dogs were reported as percent of the control figure. Analyses were by the following methods:
Ii f. koller et al., 6 Acta Haem. 1 (1951).

Ac Globulin (V) = assay: Coagulation factor concentration in dogs, factor V (Table VI); assay type: in vivo, dogs (beagles); settings: 40 mg./kg. oral x 3 days; per dog
Description: as §1
as §2, with “figure.” for “figure. Analyses were by the following methods:”

Proconvertin (VII) = assay: Coagulation factor concentration in dogs, factor VII (Table VI); assay type: in vivo, dogs (beagles); settings: 40 mg./kg. oral x 3 days; per dog
Description: as §1, §2
Vii f. bachman et al., 1 Thrombosis Diathes. Haemorrh. 169 (1957)

AHG (VIII) = assay: Coagulation factor concentration in dogs, factor VIII (Table VI); assay type: in vivo, dogs (beagles); settings: 40 mg./kg. oral x 3 days; per dog
Description: as §1, §2
Viii r. d. langdell et al., 41 J. Lab. Clin. Med. 637 (1953).

PTC (IX) = assay: Coagulation factor concentration in dogs, factor IX (Table VI); assay type: in vivo, dogs (beagles); settings: 40 mg./kg. oral x 3 days; per dog
Description: as §1, §2
Ix w. f. stapp, 10 Scand. J. Clin. Lab. Inves. 169 l (1958).

Stuart Factor (X) = assay: Coagulation factor concentration in dogs, factor X (Table VI); assay type: in vivo, dogs (beagles); settings: 40 mg./kg. oral x 3 days; per dog
Description: as §1
as §2, with “figure.” for “figure. Analyses were by the following methods:”

PTA (XI) = assay: Coagulation factor concentration in dogs, factor XI (Table VI); assay type: in vivo, dogs (beagles); settings: 40 mg./kg. oral x 3 days; per dog
Description: as §1, §2
Xi s. i. rapaport, 57 J. Lab. Clin. Med. 771 (1961).

Hageman Factor (XII) = assay: Coagulation factor concentration in dogs, factor XII (Table VI); assay type: in vivo, dogs (beagles); settings: 40 mg./kg. oral x 3 days; per dog
Description: as §1, §2
Xii o. d. ratnoff in Thrombosis and Bleading Disorders, ed. by N. U. Bang et al. (G. Thieme, and Academic Press, N.Y., 1971), pages 214-221.

prothrombin time = assay: Prothrombin time in male rats (Tables III and IV); assay type: in vivo, rats (Harlan albino strain); settings: five days, group of 5 rats
Description: Representative compounds were evaluated for prothrombin time in standard laboratory male rats (Harlan albino strain) of weanling age. A standard laboratory animal diet was fed to one group of 5 rats to serve as a control; other groups of 5 rats received modified diets, each diet being the standard laboratory animal diet modified by the incorporation therein of 0.08 percent of the respective compound. Feeding was continued for five days, at which time a blood sample was taken from each rat and analyzed for prothrombin time. The analytical method was that of A. J. Quick, "The Determination of Prothrombin," 190 Am. J. Med. Sci. 501 (1935): and it was performed on the "Electra 600", a machine available from the Medical Laboratory Automation, Inc. The results are reported in Table III.
Additional evaluations of the effect of representative compounds of prothrombin time were conducted. The procedures were the same as those reported in Examples 30-33 except that the concentration of the respective compound was 0.02 percent.

On1c(C(F)(F)F)nc2ncc(Cl)cc21 [1-hydroxy-6-chloro-2-trifluoromethyl-1H-imidazo(4,5-b)pyridine]
Activated Partial Thromboplastin Time [1]: 22.9 s and 16.0 s
Fibrinogen Levels [1]: 223 mg% and 218 mg%
Prothrombin Time [1]: 9.9 s and 6.9 s
Thrombin Clotting Time [1]: 12.2 s and 12.0 s
Coagulation Factor, Prothrombin (II) (Prothrombin (II)): 70 % of Control
Coagulation Factor, Ac Globulin (V) (Ac Globulin (V)): 100 % of Control
Coagulation Factor, Proconvertin (VII) (Proconvertin (VII)): 11 % of Control and 20 % of Control
Coagulation Factor, AHG (VIII) (AHG (VIII)): 94 % of Control and 100 % of Control
Coagulation Factor, PTC (IX) (PTC (IX)): 45 % of Control and 66 % of Control
Coagulation Factor, Stuart Factor (X) (Stuart Factor (X)): 11 % of Control and 25 % of Control
Coagulation Factor, PTA (XI) (PTA (XI)): 128 % of Control and 140 % of Control
Coagulation Factor, Hageman Factor (XII) (Hageman Factor (XII)): 37 % of Control and 18 % of Control

COn1c(C(F)(F)F)nc2ncc(Cl)cc21 [1-methoxy-6-chloro-2-trifluoromethyl-1H-imidazo(4,5-b)pyridine]
Deaths (prothrombin time; 0.02 percent in diet): none
Range of Prothrombin Time (prothrombin time; 0.02 percent in diet): 19.5 to 27.5 s
Deaths (prothrombin time; 0.08 percent in diet): none
Range of Prothrombin Time (prothrombin time; 0.08 percent in diet): 50.1 to 109.1 s
Activated Partial Thromboplastin Time [1]: 18.9 s and 26.2 s
Fibrinogen Levels [1]: 236 mg% and 222 mg%
Prothrombin Time [1]: 12.2 s and 12.9 s
Thrombin Clotting Time [1]: 10.5 s and 13.9 s
Prolongation of activated partial thromboplastin time (in words) ([1]; dogs, 40 mg./kg. oral x 3 days): prolongs activated partial thromboplastin time
Coagulation Factor, Prothrombin (II) (Prothrombin (II)): 39 % of Control
Coagulation Factor, Ac Globulin (V) (Ac Globulin (V)): 100 % of Control
Coagulation Factor, Proconvertin (VII) (Proconvertin (VII)): 9 % of Control and 14 % of Control
Coagulation Factor, AHG (VIII) (AHG (VIII)): 124 % of Control and 122 % of Control
Coagulation Factor, PTC (IX) (PTC (IX)): 26 % of Control and 35 % of Control
Coagulation Factor, Stuart Factor (X) (Stuart Factor (X)): 4 % of Control and 6 % of Control
Coagulation Factor, PTA (XI) (PTA (XI)): 224 % of Control and 200 % of Control
Coagulation Factor, Hageman Factor (XII) (Hageman Factor (XII)): 25 % of Control and 43 % of Control
